Assays:
[1] = molecular target: Nitric oxide synthase, inducible (Homo sapiens, UniProt P35228); assay: The compound was evaluated for the inhibitory potencies using human Inducible nitric oxide synthase (hiNOS)
Nitric oxide synthase 3 = molecular target: T1, Nitric oxide synthase 3 (Homo sapiens, UniProt P29474); assay: The compound was evaluated for the inhibitory potencies using human Endothelial nitric oxide synthase
T1 sequence (P29474 whole entry): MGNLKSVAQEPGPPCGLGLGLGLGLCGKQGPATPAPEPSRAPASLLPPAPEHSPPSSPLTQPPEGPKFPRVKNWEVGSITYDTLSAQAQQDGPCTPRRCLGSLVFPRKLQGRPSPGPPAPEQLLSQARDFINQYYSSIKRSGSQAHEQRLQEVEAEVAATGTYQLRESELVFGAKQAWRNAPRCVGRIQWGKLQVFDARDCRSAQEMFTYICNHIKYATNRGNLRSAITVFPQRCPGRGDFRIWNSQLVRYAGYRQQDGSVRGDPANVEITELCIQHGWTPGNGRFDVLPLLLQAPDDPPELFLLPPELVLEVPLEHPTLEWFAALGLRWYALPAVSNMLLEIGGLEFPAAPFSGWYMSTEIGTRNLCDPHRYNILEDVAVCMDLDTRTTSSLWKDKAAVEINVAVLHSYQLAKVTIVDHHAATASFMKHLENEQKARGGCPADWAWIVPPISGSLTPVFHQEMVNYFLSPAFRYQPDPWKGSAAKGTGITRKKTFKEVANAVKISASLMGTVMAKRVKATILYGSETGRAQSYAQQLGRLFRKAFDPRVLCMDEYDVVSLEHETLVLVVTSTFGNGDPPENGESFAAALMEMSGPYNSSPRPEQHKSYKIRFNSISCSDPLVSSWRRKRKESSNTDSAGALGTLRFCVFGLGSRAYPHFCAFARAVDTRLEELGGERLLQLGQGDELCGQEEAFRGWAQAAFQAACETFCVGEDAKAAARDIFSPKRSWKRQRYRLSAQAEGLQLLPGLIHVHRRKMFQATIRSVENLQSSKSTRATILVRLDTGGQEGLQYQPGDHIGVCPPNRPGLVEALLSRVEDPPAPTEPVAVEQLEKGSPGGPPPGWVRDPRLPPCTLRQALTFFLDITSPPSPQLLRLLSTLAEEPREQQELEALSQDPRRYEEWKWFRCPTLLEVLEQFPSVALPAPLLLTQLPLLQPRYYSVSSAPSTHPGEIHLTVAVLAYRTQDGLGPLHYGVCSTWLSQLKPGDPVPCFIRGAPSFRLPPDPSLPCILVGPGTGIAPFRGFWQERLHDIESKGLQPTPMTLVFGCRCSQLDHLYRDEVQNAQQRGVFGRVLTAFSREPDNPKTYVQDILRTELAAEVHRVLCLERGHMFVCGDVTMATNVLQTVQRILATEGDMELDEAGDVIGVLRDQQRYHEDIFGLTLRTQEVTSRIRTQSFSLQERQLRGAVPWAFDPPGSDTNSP

Rattus norvegicus [2] = organism: Rattus norvegicus; assay: Biodistribution inl liver of mature female Dawley rat after 1h, expressed as percent injected dose/g; type: ADME, organism-based; conditions: in vivo
Rattus norvegicus [3] = organism: Rattus norvegicus; assay: Biodistribution in blood of mature female Dawley rat after 30min, expressed as percent injected dose/g; type: ADME, organism-based; conditions: in vivo, 0.5 h
Rattus norvegicus [4] = organism: Rattus norvegicus; assay: Biodistribution in abdominal Dawley rat after 30min, expressed as percent injected dose/g; type: ADME, organism-based; conditions: in vivo, 0.5 h
Rattus norvegicus [5] = organism: Rattus norvegicus; assay: Biodistribution in bone of mature female Dawley rat after 30min, expressed as percent injected dose/g; type: ADME, organism-based, Bone element; conditions: in vivo, 0.5 h
Rattus norvegicus [6] = organism: Rattus norvegicus; assay: Biodistribution in lung of mature female Dawley rat after 3 h, expressed as percent injected dose/g; type: ADME, organism-based; conditions: in vivo
Rattus norvegicus [7] = organism: Rattus norvegicus; assay: Biodistribution in brain of mature female Dawley rat after 1h, expressed as percent injected dose/g; type: ADME, organism-based; conditions: in vivo
Rattus norvegicus [8] = organism: Rattus norvegicus; assay: Biodistribution in lung of mature female Dawley rat after 30min, expressed as percent injected dose/g; type: ADME, organism-based; conditions: in vivo, 0.5 h
Rattus norvegicus [9] = organism: Rattus norvegicus; assay: Biodistribution in bone of mature female Dawley rat after 3 h, expressed as percent injected dose/g; type: ADME, organism-based, Bone element; conditions: in vivo
Rattus norvegicus [10] = organism: Rattus norvegicus; assay: Biodistribution in kidney of mature female Dawley rat after 3 h, expressed as percent injected dose/g; type: ADME, organism-based; conditions: in vivo
Rattus norvegicus [11] = organism: Rattus norvegicus; assay: Biodistribution in muscle of mature female Dawley rat after 1h, expressed as percent injected dose/g; type: ADME, organism-based, Muscle tissue; conditions: in vivo
Rattus norvegicus [12] = organism: Rattus norvegicus; assay: Biodistribution in heart of mature female Dawley rat after 30min, expressed as percent injected dose/g; type: ADME, organism-based; conditions: in vivo, 0.5 h
Rattus norvegicus [13] = organism: Rattus norvegicus; assay: Biodistribution in kidney of mature female Dawley rat after 30min, expressed as percent injected dose/g; type: ADME, organism-based; conditions: in vivo, 0.5 h
Rattus norvegicus [14] = organism: Rattus norvegicus; assay: Biodistribution inl iver of mature female Dawley rat after 3 h, expressed as percent injected dose/g; type: ADME, organism-based, Liver; conditions: in vivo
Rattus norvegicus [15] = organism: Rattus norvegicus; assay: Biodistribution in fat of mature female Dawley rat after 1h, expressed as percent injected dose/g; type: ADME, organism-based, Adipose tissue; conditions: in vivo
Rattus norvegicus [16] = organism: Rattus norvegicus; assay: Biodistribution in fat of mature female Dawley rat after 30min, expressed as percent injected dose/g; type: ADME, organism-based, Adipose tissue; conditions: in vivo, 0.5 h
Rattus norvegicus [17] = organism: Rattus norvegicus; assay: Biodistribution in brain of mature female Dawley rat after 30min, expressed as percent injected dose/g; type: ADME, organism-based; conditions: in vivo, 0.5 h
Rattus norvegicus [18] = organism: Rattus norvegicus; assay: Biodistribution in blood of mature female Dawley rat after 10min, expressed as percent injected dose/g; type: ADME, organism-based; conditions: in vivo
Rattus norvegicus [19] = organism: Rattus norvegicus; assay: Biodistribution in blood of mature female Dawley rat after 1h, expressed as percent injected dose/g; type: ADME, organism-based; conditions: in vivo
Rattus norvegicus [20] = organism: Rattus norvegicus; assay: Biodistribution in blood of mature female Dawley rat after 3 h, expressed as percent injected dose/g; type: ADME, organism-based; conditions: in vivo
Rattus norvegicus [21] = organism: Rattus norvegicus; assay: Biodistribution in heart of mature female Dawley rat after 1h, expressed as percent injected dose/g; type: ADME, organism-based; conditions: in vivo
Rattus norvegicus [22] = organism: Rattus norvegicus; assay: Biodistribution in brain of mature female Dawley rat after 3 h, expressed as percent injected dose/g; type: ADME, organism-based; conditions: in vivo
Rattus norvegicus [23] = organism: Rattus norvegicus; assay: Biodistribution in bone of mature female Dawley rat after 10min, expressed as percent injected dose/g; type: ADME, organism-based, Bone element; conditions: in vivo
Rattus norvegicus [24] = organism: Rattus norvegicus; assay: Biodistribution in muscle of mature female Dawley rat after 3 h, expressed as percent injected dose/g; type: ADME, organism-based, Muscle tissue; conditions: in vivo
Rattus norvegicus [25] = organism: Rattus norvegicus; assay: Biodistribution in muscle of mature female Dawley rat after 30min, expressed as percent injected dose/g; type: ADME, organism-based, Muscle tissue; conditions: in vivo, 0.5 h
Rattus norvegicus [26] = organism: Rattus norvegicus; assay: Biodistribution in kidney of mature female Dawley rat after 1h, expressed as percent injected dose/g; type: ADME, organism-based; conditions: in vivo
Rattus norvegicus [27] = organism: Rattus norvegicus; assay: Biodistribution in heart of mature female Dawley rat after 3 h, expressed as percent injected dose/g; type: ADME, organism-based; conditions: in vivo
Rattus norvegicus [28] = organism: Rattus norvegicus; assay: Biodistribution in heart of mature female Dawley rat after 10min, expressed as percent injected dose/g; type: ADME, organism-based; conditions: in vivo
Rattus norvegicus [29] = organism: Rattus norvegicus; assay: Biodistribution in abdominal of mature female Dawley rat after 1h, expressed as percent injected dose/g; type: ADME, organism-based, Abdominal cavity; conditions: in vivo
Rattus norvegicus [30] = organism: Rattus norvegicus; assay: Biodistribution in abdominal of mature female Dawley rat after 3 h, expressed as percent injected dose/g; type: ADME, organism-based, Abdominal cavity; conditions: in vivo
Rattus norvegicus [31] = organism: Rattus norvegicus; assay: Biodistribution in abdominal of mature female Dawley rat after 10min, expressed as percent injected dose/g; type: ADME, organism-based, Abdominal cavity; conditions: in vivo
Rattus norvegicus [32] = organism: Rattus norvegicus; assay: Biodistribution in bone of mature female Dawley rat after 1h, expressed as percent injected dose/g; type: ADME, organism-based, Bone element; conditions: in vivo
Rattus norvegicus [33] = organism: Rattus norvegicus; assay: Biodistribution in fat of mature female Dawley rat after 10min, expressed as percent injected dose/g; type: ADME, organism-based, Adipose tissue; conditions: in vivo
Rattus norvegicus [34] = organism: Rattus norvegicus; assay: Biodistribution inl ilver of mature female Dawley rat after 30min, expressed as percent injected dose/g; type: ADME, organism-based; conditions: in vivo, 0.5 h
Rattus norvegicus [35] = organism: Rattus norvegicus; assay: Biodistribution in brain of mature female Dawley rat after 10min, expressed as percent injected dose/g; type: ADME, organism-based; conditions: in vivo
Rattus norvegicus [36] = organism: Rattus norvegicus; assay: Biodistribution in liver of mature female Dawley rat after 10min, expressed as percent injected dose/g; type: ADME, organism-based; conditions: in vivo
Rattus norvegicus [37] = organism: Rattus norvegicus; assay: Biodistribution in muscle of mature female Dawley rat after 10min, expressed as percent injected dose/g; type: ADME, organism-based, Muscle tissue; conditions: in vivo
Rattus norvegicus [38] = organism: Rattus norvegicus; assay: Biodistribution in lung of mature female Dawley rat after 1h, expressed as percent injected dose/g; type: ADME, organism-based; conditions: in vivo
Rattus norvegicus [39] = organism: Rattus norvegicus; assay: Biodistribution in fat of mature female Dawley rat after 3 h, expressed as percent injected dose/g; type: ADME, organism-based, Adipose tissue; conditions: in vivo
Rattus norvegicus [40] = organism: Rattus norvegicus; assay: Biodistribution in kidney of mature female Dawley rat after 10min, expressed as percent injected dose/g; type: ADME, organism-based; conditions: in vivo
Rattus norvegicus [41] = organism: Rattus norvegicus; assay: Biodistribution in lung of mature female Dawley rat after 10min, expressed as percent injected dose/g; type: ADME, organism-based; conditions: in vivo

Sequence of Nitric oxide synthase, inducible (P35228 whole entry): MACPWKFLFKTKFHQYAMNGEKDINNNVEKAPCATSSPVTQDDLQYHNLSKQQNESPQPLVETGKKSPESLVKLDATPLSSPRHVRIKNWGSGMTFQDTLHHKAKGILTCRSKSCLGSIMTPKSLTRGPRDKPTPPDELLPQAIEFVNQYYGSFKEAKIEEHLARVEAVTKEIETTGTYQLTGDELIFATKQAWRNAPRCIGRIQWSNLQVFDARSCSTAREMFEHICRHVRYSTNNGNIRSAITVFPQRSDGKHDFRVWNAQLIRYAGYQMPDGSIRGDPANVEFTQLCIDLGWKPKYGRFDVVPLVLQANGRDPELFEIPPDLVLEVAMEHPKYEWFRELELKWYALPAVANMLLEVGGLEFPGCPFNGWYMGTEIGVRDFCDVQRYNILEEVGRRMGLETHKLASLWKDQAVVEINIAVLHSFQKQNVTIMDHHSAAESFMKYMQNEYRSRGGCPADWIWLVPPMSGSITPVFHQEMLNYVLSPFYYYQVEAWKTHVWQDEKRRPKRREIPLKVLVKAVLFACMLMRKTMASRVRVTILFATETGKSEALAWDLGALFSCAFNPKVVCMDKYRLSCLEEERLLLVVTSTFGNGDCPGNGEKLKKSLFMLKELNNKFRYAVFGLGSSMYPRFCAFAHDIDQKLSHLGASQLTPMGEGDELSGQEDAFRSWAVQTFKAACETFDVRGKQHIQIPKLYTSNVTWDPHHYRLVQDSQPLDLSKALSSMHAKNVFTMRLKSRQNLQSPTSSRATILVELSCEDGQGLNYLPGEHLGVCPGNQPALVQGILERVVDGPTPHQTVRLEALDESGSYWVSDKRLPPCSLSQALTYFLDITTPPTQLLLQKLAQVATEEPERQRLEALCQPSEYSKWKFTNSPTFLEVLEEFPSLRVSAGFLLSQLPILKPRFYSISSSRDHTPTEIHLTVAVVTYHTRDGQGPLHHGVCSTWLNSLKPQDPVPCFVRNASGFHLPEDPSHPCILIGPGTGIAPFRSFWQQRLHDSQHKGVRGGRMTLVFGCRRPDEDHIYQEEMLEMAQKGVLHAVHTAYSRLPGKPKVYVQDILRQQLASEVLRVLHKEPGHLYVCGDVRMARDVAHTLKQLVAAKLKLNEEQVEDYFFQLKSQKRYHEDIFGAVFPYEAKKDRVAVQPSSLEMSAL

SMILES: CSC(=N)N
- IC50 [1]: 3 µM
- IC50 (Nitric oxide synthase 3): 7 µM

SMILES: N=C(N)SCC[18F]
- Biodistribution (Rattus norvegicus [2]): 0.35%
- Biodistribution (Rattus norvegicus [3]): 0.27%
- Biodistribution (Rattus norvegicus [4]): 0.31%
- Biodistribution (Rattus norvegicus [5]): 0.82%
- Biodistribution (Rattus norvegicus [6]): 0.17%
- Biodistribution (Rattus norvegicus [7]): 0.17%
- Biodistribution (Rattus norvegicus [8]): 0.57%
- Biodistribution (Rattus norvegicus [9]): 1.19%
- Biodistribution (Rattus norvegicus [10]): 0.21%
- Biodistribution (Rattus norvegicus [11]): 0.32%
- Biodistribution (Rattus norvegicus [12]): 0.37%
- Biodistribution (Rattus norvegicus [13]): 1.06%
- Biodistribution (Rattus norvegicus [14]): 0.16%
- Biodistribution (Rattus norvegicus [15]): 0.07%
- Biodistribution (Rattus norvegicus [16]): 0.07%
- Biodistribution (Rattus norvegicus [17]): 0.15%
- Biodistribution (Rattus norvegicus [18]): 0.32%
- Biodistribution (Rattus norvegicus [19]): 0.32%
- Biodistribution (Rattus norvegicus [20]): 0.19%
- Biodistribution (Rattus norvegicus [21]): 0.29%
- Biodistribution (Rattus norvegicus [22]): 0.16%
- Biodistribution (Rattus norvegicus [23]): 0.55%
- Biodistribution (Rattus norvegicus [24]): 0.14%
- Biodistribution (Rattus norvegicus [25]): 0.38%
- Biodistribution (Rattus norvegicus [26]): 0.64%
- Biodistribution (Rattus norvegicus [27]): 0.16%
- Biodistribution (Rattus norvegicus [28]): 0.62%
- Biodistribution (Rattus norvegicus [29]): 0.26%
- Biodistribution (Rattus norvegicus [30]): 0.16%
- Biodistribution (Rattus norvegicus [31]): 0.38%
- Biodistribution (Rattus norvegicus [32]): 0.88%
- Biodistribution (Rattus norvegicus [33]): 0.08%
- Biodistribution (Rattus norvegicus [34]): 0.51%
- Biodistribution (Rattus norvegicus [35]): 0.14%
- Biodistribution (Rattus norvegicus [36]): 0.95%
- Biodistribution (Rattus norvegicus [37]): 0.33%
- Biodistribution (Rattus norvegicus [38]): 0.38%
- Biodistribution (Rattus norvegicus [39]): 0.04%
- Biodistribution (Rattus norvegicus [40]): 1.82%
- Biodistribution (Rattus norvegicus [41]): 1.02%

Source: ChEMBL document CHEMBL1129456, “Synthesis and evaluation of two positron-labeled nitric oxide synthase inhibitors, S-[11C]methylisothiourea and S-(2-[18F]fluoroethyl)isothiourea, as potential positron emission tomography tracers” (J Med Chem, 1996)
